Results as given in patent US12077503B2, “Substituted cyclic amides and their use as herbicides” (FMC CORPORATION, priority 2015, dated 2024).

Tests used:
Assay type in all cases: in vivo
[1] = tested on: pigweed (Amaranthus retroflexus); assay: Test A preemergence; conditions: for Plant response rating, Pigweed: 125 g ai/ha, preemergence, 0 to 100 scale (0 no effect, 100 complete control); for Pigweed plant response rating (0 to 100 scale, 0 is no effect, 100 is complete control): visual injury approx. 10 d
[2] = tested on: Kochia (Kochia scoparia); assay: Test A preemergence; conditions: for Plant response rating, Kochia: 125 g ai/ha, preemergence, 0 to 100 scale (0 no effect, 100 complete control); for Kochia plant response rating (0 to 100 scale, 0 is no effect, 100 is complete control): visual injury approx. 10 d
Outline: (§1)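 Seeds sprayed preemergence with a directed soil spray, or plants at 2 to 10 cm height and one- to two-leaf stage sprayed postemergence, with test chemicals in a non-phytotoxic solvent mixture containing surfactant, in loam soil–sand blend. Injury rated visually against untreated controls after about 10 d in greenhouse, 0 (no effect) to 100 (complete control).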

[3] = tested on: ragweed (common ragweed, Ambrosia elatior); assay: Test A preemergence; conditions: for Plant response rating, Ragweed: 125 g ai/ha, preemergence, 0 to 100 scale (0 no effect, 100 complete control); for Ragweed plant response rating (0 to 100 scale, 0 is no effect, 100 is complete control): visual injury approx. 10 d
Outline: as §1

[4] = tested on: giant foxtail (Setaria faberii); assay: Test A preemergence; conditions: for Plant response rating, Foxtail, Giant: 125 g ai/ha, preemergence, 0 to 100 scale (0 no effect, 100 complete control); for Foxtail, Giant plant response rating (0 to 100 scale, 0 is no effect, 100 is complete control): visual injury approx. 10 d
Outline: as §1

[5] = tested on: ryegrass, Italian (Italian ryegrass, Lolium multiflorum); assay: Test A preemergence; conditions: for Plant response rating, Ryegrass, Italian: 125 g ai/ha, preemergence, 0 to 100 scale (0 no effect, 100 complete control); for Ryegrass, Italian plant response rating (0 to 100 scale, 0 is no effect, 100 is complete control): visual injury approx. 10 d
Outline: as §1

[6] = tested on: barnyardgrass (Echinochloa crus-galli); assay: Test A preemergence; conditions: for Plant response rating, Barnyardgrass: 125 g ai/ha, preemergence, 0 to 100 scale (0 no effect, 100 complete control); for Barnyardgrass plant response rating (0 to 100 scale, 0 is no effect, 100 is complete control): visual injury approx. 10 d
Outline: as §1

[7] = tested on: blackgrass (Alopecurus myosuroides); assay: Test A postemergence; conditions: for Blackgrass plant response rating: visual injury rating on 0 to 100 scale (0 no effect, 100 complete control)
Outline: as §1

[8] = tested on: pigweed (Amaranthus retroflexus); assay: Test A postemergence; conditions: postemergence; for Pigweed plant response rating: 125 g ai/ha, visual injury rating on 0 to 100 scale (0 no effect, 100 complete control), approx. 10 d; for Plant response rating, Pigweed: 500 g ai/ha, 0 to 100 scale, 0 no effect, 100 complete control
Outline: as §1

[9] = tested on: Kochia (Kochia scoparia); assay: Test A postemergence; conditions: postemergence; for Kochia plant response rating: 125 g ai/ha, visual injury rating on 0 to 100 scale (0 no effect, 100 complete control), approx. 10 d; for Plant response rating, Kochia: 500 g ai/ha, 0 to 100 scale, 0 no effect, 100 complete control
Outline: as §1

[10] = tested on: Galium (catchweed bedstraw, Galium aparine); assay: Test A postemergence; conditions: postemergence; for Galium plant response rating: 125 g ai/ha, visual injury rating on 0 to 100 scale (0 no effect, 100 complete control), approx. 10 d; for Plant response rating, Galium: 500 g ai/ha, 0 to 100 scale, 0 no effect, 100 complete control
Outline: as §1

[11] = tested on: ragweed (common ragweed, Ambrosia elatior); assay: Test A postemergence; conditions: postemergence; for Ragweed plant response rating: 125 g ai/ha, visual injury rating on 0 to 100 scale (0 no effect, 100 complete control), approx. 10 d; for Plant response rating, Ragweed: 500 g ai/ha, 0 to 100 scale, 0 no effect, 100 complete control
Outline: as §1

[12] = tested on: giant foxtail (Setaria faberii); assay: Test A postemergence; conditions: postemergence; for Foxtail, Giant plant response rating: 125 g ai/ha, visual injury rating on 0 to 100 scale (0 no effect, 100 complete control), approx. 10 d; for Plant response rating, Foxtail, Giant: 500 g ai/ha, 0 to 100 scale, 0 no effect, 100 complete control
Outline: as §1

[13] = tested on: wheat (Triticum aestivum); assay: Test A postemergence; conditions: postemergence; for Wheat plant response rating: 125 g ai/ha, visual injury rating on 0 to 100 scale (0 no effect, 100 complete control), approx. 10 d; for Plant response rating, Wheat: 500 g ai/ha, 0 to 100 scale, 0 no effect, 100 complete control
Outline: as §1

[14] = tested on: ryegrass, Italian (Italian ryegrass, Lolium multiflorum); assay: Test A postemergence; conditions: postemergence; for Ryegrass, Italian plant response rating: 125 g ai/ha, visual injury rating on 0 to 100 scale (0 no effect, 100 complete control), approx. 10 d; for Plant response rating, Ryegrass, Italian: 500 g ai/ha, 0 to 100 scale, 0 no effect, 100 complete control
Outline: as §1

[15] = tested on: barnyardgrass (Echinochloa crus-galli); assay: Test A postemergence; conditions: for Barnyardgrass plant response rating: visual injury rating on 0 to 100 scale (0 no effect, 100 complete control)
Outline: as §1

[16] = tested on: corn (Zea mays); assay: Test A postemergence; conditions: postemergence; for Corn plant response rating: 125 g ai/ha, visual injury rating on 0 to 100 scale (0 no effect, 100 complete control), approx. 10 d; for Plant response rating, Corn: 500 g ai/ha, 0 to 100 scale, 0 no effect, 100 complete control
Outline: as §1

[17] = tested on: rice (Oryra sativa); assay: Test B flooded paddy test; conditions: Flood, 250 g ai/ha; 0 to 100 scale where 0 is no effect and 100 is complete control; 13 to 15 d
Outline: (§2)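 2-leaf plants; pots flooded 3 cm over soil; cpd added to paddy water; depth held; greenhouse 13–15 d; visual rating vs controls, 0 = no effect, 100 = complete control.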

[18] = tested on: ducksalad (Heteranthera limosa); assay: Test B flooded paddy test; conditions: Flood, 250 g ai/ha; 0 to 100 scale where 0 is no effect and 100 is complete control; 13 to 15 d
Outline: as §2

[19] = tested on: barnyardgrass (Echinochloa crus-galli); assay: Test B flooded paddy test; conditions: Flood, 250 g ai/ha; 0 to 100 scale where 0 is no effect and 100 is complete control; 13 to 15 d
Outline: as §2

[20] = tested on: sedge, umbrella (small-flower umbrella sedge, Cyperus difformis); assay: Test B flooded paddy test; conditions: Flood, 250 g ai/ha; 0 to 100 scale where 0 is no effect and 100 is complete control; 13 to 15 d
Outline: as §2

[21] = Preemergence, 500 g ai/ha, 0 is no effect, 100 is complete control
[22] = 500 g ai/ha, postemergence, 0 to 100 scale, 0 no effect, 100 complete control
[23] = Postemergence, 125 g ai/ha, visual injury, 0 to 100 scale (0 no effect, 100 complete control), approx. 10 d
[24] = 125 g ai/ha, postemergence, approx. 10 d

Structure (SMILES)	Plant response rating, Pigweed [1]	Plant response rating, Kochia [2]	Plant response rating, Ragweed [3]	Plant response rating, Foxtail, Giant [4]	Plant response rating, Ryegrass, Italian [5]	Plant response rating, Barnyardgrass [6]	Plant response rating, Blackgrass [7, 22]	Pigweed plant response rating [8]	Plant response rating, Pigweed [8]	Kochia plant response rating [9]	Plant response rating, Kochia [9]	Galium plant response rating [10]	Plant response rating, Galium [10]	Ragweed plant response rating [11]	Plant response rating, Ragweed [11]	Foxtail, Giant plant response rating [12]	Plant response rating, Foxtail, Giant [12]	Wheat plant response rating [13]	Plant response rating, Wheat [13]	Ryegrass, Italian plant response rating [14]	other results
CN1CC(c2ccc(C(F)(F)F)c(F)c2)C(C(=O)Nc2cccc(F)c2F)C1=O (stereo not drawn) [Compound 396]	90	80	0	90	60	90	60	60	70	60	70	60	60	0	0	80	90	20	70	50	Pigweed plant response rating (0 to 100 scale) [1, 21]: 90; Kochia plant response rating (0 to 100 scale) [2, 21]: 80; Ragweed plant response rating (0 to 100 scale) [3, 21]: 20; Foxtail, Giant plant response rating (0 to 100 scale) [4, 21]: 90; Ryegrass, Italian plant response rating (0 to 100 scale) [5, 21]: 70; Barnyardgrass plant response rating (0 to 100 scale) [6, 21]: 90; Plant response rating, Blackgrass [7, 23]: 50; Plant response rating, Ryegrass, Italian [14]: 70; Plant response rating, Barnyardgrass [15, 22]: 90; Plant response rating, Barnyardgrass [15, 23]: 70; Corn plant response rating [16]: 70; Plant response rating, Corn [16]: 80; Plant response rating, Rice [17]: 30; Plant response rating, Ducksalad [18]: 40; Plant response rating, Barnyardgrass [19]: 40; Plant response rating, Sedge, Umbrella [20]: 0
CN1CC(c2ccc(C(F)(F)F)c(F)c2)C(C(=O)Nc2ccccc2F)C1=O (stereo not drawn) [Compound 399]	70	80	50	90	20	90	60	30	40	50	60	50	50	0	0	90	90	40	60	40	Pigweed plant response rating (0 to 100 scale, 0 is no effect, 100 is complete control) ([1]; Preemergence, 500 g ai/ha): 90; Kochia plant response rating (0 to 100 scale, 0 is no effect, 100 is complete control) ([2]; Preemergence, 500 g ai/ha): 80; Ragweed plant response rating (0 to 100 scale, 0 is no effect, 100 is complete control) ([3]; Preemergence, 500 g ai/ha): 50; Foxtail, Giant plant response rating (0 to 100 scale, 0 is no effect, 100 is complete control) ([4]; Preemergence, 500 g ai/ha): 90; Ryegrass, Italian plant response rating (0 to 100 scale, 0 is no effect, 100 is complete control) ([5]; Preemergence, 500 g ai/ha): 60; Barnyardgrass plant response rating (0 to 100 scale, 0 is no effect, 100 is complete control) ([6]; Preemergence, 500 g ai/ha): 90; Blackgrass plant response rating [7, 24]: 40; Plant response rating, Ryegrass, Italian [14]: 40; Barnyardgrass plant response rating [15, 24]: 90; Plant response rating, Barnyardgrass [15, 22]: 90; Corn plant response rating [16]: 50; Plant response rating, Corn [16]: 70; Plant response rating, Rice [17]: 0; Plant response rating, Ducksalad [18]: 100; Plant response rating, Barnyardgrass [19]: 65; Plant response rating, Sedge, Umbrella [20]: 0
O=C1NCC(c2ccc(Br)cc2)C1C(=O)Nc1cccc(F)c1F (stereo not drawn) [Compound 446]	40	50	50	90	20	90	50	50	60	60	60	50	50	0	20	90	90	0	50	20	Pigweed plant response rating (0 to 100 scale, 0 is no effect, 100 is complete control) ([1]; Preemergence, 500 g ai/ha): 60; Kochia plant response rating (0 to 100 scale, 0 is no effect, 100 is complete control) ([2]; Preemergence, 500 g ai/ha): 50; Ragweed plant response rating (0 to 100 scale, 0 is no effect, 100 is complete control) ([3]; Preemergence, 500 g ai/ha): 50; Foxtail, Giant plant response rating (0 to 100 scale, 0 is no effect, 100 is complete control) ([4]; Preemergence, 500 g ai/ha): 90; Ryegrass, Italian plant response rating (0 to 100 scale, 0 is no effect, 100 is complete control) ([5]; Preemergence, 500 g ai/ha): 60; Barnyardgrass plant response rating (0 to 100 scale, 0 is no effect, 100 is complete control) ([6]; Preemergence, 500 g ai/ha): 90; Blackgrass plant response rating [7, 24]: 50; Plant response rating, Ryegrass, Italian [14]: 30; Barnyardgrass plant response rating [15, 24]: 80; Plant response rating, Barnyardgrass [15, 22]: 90; Corn plant response rating [16]: 20; Plant response rating, Corn [16]: 30; Plant response rating, Rice [17]: 0; Plant response rating, Ducksalad [18]: 100; Plant response rating, Barnyardgrass [19]: 75; Plant response rating, Sedge, Umbrella [20]: 0
Cc1ccc(C2CN(C)C(=O)C2C(=O)Nc2ccccc2F)cc1F (stereo not drawn) [Compound 465]	50	80	40	100	70	90	70	0	20	50	60	60	60	0	30	90	90	60	70	60	Pigweed plant response rating (0 to 100 scale, 0 is no effect, 100 is complete control) ([1]; Preemergence, 500 g ai/ha): 70; Kochia plant response rating (0 to 100 scale, 0 is no effect, 100 is complete control) ([2]; Preemergence, 500 g ai/ha): 80; Ragweed plant response rating (0 to 100 scale, 0 is no effect, 100 is complete control) ([3]; Preemergence, 500 g ai/ha): 70; Foxtail, Giant plant response rating (0 to 100 scale, 0 is no effect, 100 is complete control) ([4]; Preemergence, 500 g ai/ha): 100; Ryegrass, Italian plant response rating (0 to 100 scale, 0 is no effect, 100 is complete control) ([5]; Preemergence, 500 g ai/ha): 70; Barnyardgrass plant response rating (0 to 100 scale, 0 is no effect, 100 is complete control) ([6]; Preemergence, 500 g ai/ha): 100; Blackgrass plant response rating [7, 24]: 40; Plant response rating, Ryegrass, Italian [14]: 70; Barnyardgrass plant response rating [15, 24]: 90; Plant response rating, Barnyardgrass [15, 22]: 90; Corn plant response rating [16]: 80; Plant response rating, Corn [16]: 90; Plant response rating, Rice [17]: 0; Plant response rating, Ducksalad [18]: 100; Plant response rating, Barnyardgrass [19]: 80; Plant response rating, Sedge, Umbrella [20]: 0
